Data from US20090253743A1, “COMPOSITIONS OF TOLPERISONE” (Avigen, Inc., priority 2007, published 2009).
Structures can show the parent of a compound that is named as a salt. Blank lines part the entries; values can stand above or below the compound they belong to.

Experiments:
Assay type in all cases: physicochemical
[1] = HPLC-MS/MS analysis of 4-MMPPO content in tolperisone compositions; details: drug lot (API) used in the tablet
Method: Tolperisone compositions were obtained from various commercial sources and analyzed for 4-MMPPO content by HPLC-MS/MS.
All samples used in the analytical sequence were prepared for analysis as follows. Sample were homogenized if necessary (e.g., tablets) and weighed. For each tolperisone sample, approximately 20 mg of sample was added into a 20 mL flask. 20 mL of 50 mM HCl in MeOH was added to the flask, which was then placed in an ultrasonic bath for about 5 minutes. The contents of the flask were mixed on a vortexer for about 20 seconds. In instances in which the tolperisone sample had initially been in tablet form, the solution was then centrifuged at 4000 rpm for 2 minutes. 200 μL of the sample was then transferred into a small conical centrifuge vial. 20 μL of an internal standard solution containing deuterated 4-MMPPO, 200 μL of buffer at pH 1, and 0.4 mL of diisopropyl ether (DIPE) were added to the vial. The sample was then extracted by vortexing with a DVX-2500 multi-tube vortexer (2100 rpm) for about 2 minutes (cycle: 5 seconds run, 1 second pause time) and centrifugation (phase separation) at 4000 rpm for 2 minutes. 150 μL of 50 mM HCl in MeOH/DMSO (½) was added into empty designated conical autosampler vials. After centrifugation, 100 μL of supernatant was transferred into these conical autosampler vials. The vials were crimped and vortexed with a DVX-2500 multi-tube vortexer (2100 rpm) for about 1 minute. 7 μL of the prepared sample was then injected immediately into an HPLC-MS/MS system or the sample was stored at a temperature below −20° C. until analysis. The chromatography conditions and mass spectrometry parameters used for analysis of 4-MMPPO are shown below in Tables 1 and 2, respectively.
Lots of tolperisone were obtained from manufacturers A and B, as were the final manufactured tablet formulations. Analyses were carried out as described in Example 1 to determine 4-MMPPO levels in both drug lots and final manufactured formulations.

[2] = Stability studies of 4-MMPPO / tolperisone HCl solutions (liquid-liquid extraction, HPLC-MS/MS)
Method: The analytical method employed utilized liquid-liquid extraction and HPLC separation on a C18-column with MS/MS detection and internal standardization.
Test solution: 50 mM HCl in methanol containing 40 mg per 200 μL of tolperisone HCl (containing 4-MMPPO as an impurity)
Samples were prepared for analysis generally as follows. 200 μL of IS working solution was added to the dry weighed bulk material or to the 20 μL aliquots. The samples were vortexed, followed by addition of 200 μL of buffer solution. 0.40 mL of DIPE (diisopropyl ether) was then added, followed by extraction via vortexing, and phase separation via centrifugation. About 250 μL of supernatant solution was then transferred into each 5 mL conical centrifuge vial, followed by addition of 200 μL of buffer solution. The major portion of tolperisone was then re-extracted into the watery phase by vortexing, followed by phase separation by centrifugation. 50 μL of centrifugation supernatant was then transferred to each auto sample vial containing injection solution (75 μL of 50 mM HCl in DMSO/MeOH 2/1). Samples were capped (crimped) and vortexed, followed by injection of 7 μL sample into the HPLC-MS/MS system for analysis.
During stability studies for a calibration range from 1-200 ppm, various solutions: a) 4-MMPPO in tolperisone free solution (“reference solution”), b) tolperisone HCl solution (default concentration of 10 mg/mL) without spiking of any 4-MMPPO (“test solution”), and c) tolperisone HCl solution (default concentration of 10 mg/mL) spiked with 4-MMPPO (“spiked test solution”) were assessed under the following storage conditions: (i) for three freeze thaw cycles prior to sample preparation for analysis, (ii) at bench top temperature for 4 hours, and (iii) at auto sampler conditions for 12 hours after sample preparation for analysis. […] Additionally, 4-MMPPO was stable at −70° C. for 2 months prior to sample preparation for analysis.
During stability studies for a concentration range from 0.05-25 ppm, various solutions: a) 4-MMPPO in tolperisone free solution (“reference solution”), b) tolperisone HCl solution (default concentration of 200 mg/mL) without spiking of any 4-MMPPO (“test solution”), and c) tolperisone HCl solution (default concentration of 200 mg/mL) spiked with 4-MMPPO (“spiked test solution”) were assessed under the following storage conditions: (i) at bench top temperature for 2 hours prior to sample preparation for analysis, and (ii) at auto sampler conditions for 14 hours after sample preparation for analysis.

[3] = HPLC-MS/MS analysis of 4-MMPPO content in tolperisone compositions
[4] = calibration range 1-200 ppm, tolperisone HCl 10 mg/mL, each of: three freeze thaw cycles, bench top 4 hours, auto sampler 12 hours
[5] = range 0.05-25 ppm, tolperisone HCl 200 mg/mL, auto sampler conditions 14 hours after sample preparation

[4-MMPPO in Drug Lot or API], ppm [1]: 22 ppm
Structure (SMILES): Cc1ccc(C(=O)C(C)CN2CCCCC2)cc1 (centres unmarked) [SF0191, tolperisone]

[4-MMPPO in Drug Lot or API], ppm [1]: 21 ppm
[4-MMPPO in Drug Lot or API], ppm ([1]; listed as SF0192): 21 ppm
Structure (SMILES): Cc1ccc(C(=O)C(C)CN2CCCCC2)cc1 (centres unmarked) [SFO192, tolperisone]

4-MMPPO concentration on storage of solution [2, 4]: slight increase
4-MMPPO concentration on storage of solution [2, 5]: constant 4-MMPPO concentration
4-MMPPO concentration on storage of solution ([2]; range 0.05-25 ppm, tolperisone HCl 200 mg/mL, bench top temperature 2 hours prior to sample preparation): slight increase
level of 4-MMPPO ([3]; recrystallized, washed with MTBE saturated with citric acid): below 1 ppm
Structure (SMILES): Cc1ccc(C(=O)C(C)CN2CCCCC2)cc1 (centres unmarked) [tolperisone HCl, tolperisone hydrochloride]

[4-MMPPO in Drug Lot or API], ppm [1]: 20 ppm
Structure (SMILES): Cc1ccc(C(=O)C(C)CN2CCCCC2)cc1 (centres unmarked) [SE0107, tolperisone]

[4-MMPPO in Drug Lot or API], ppm [1]: 14 ppm
Structure (SMILES): Cc1ccc(C(=O)C(C)CN2CCCCC2)cc1 (centres unmarked) [SD0108, tolperisone]

4-MMPPO in recrystallized tolperisone ([3]; Example 2, single standard recrystallization from 2-butanone/isopropanol, dried at 45-85° C.): 0.14 % by weight
4-MMPPO in recrystallized tolperisone ([3]; Example 2, subsequent production batches): < 0.05%
4-MMPPO levels in the final recrystallized tolperisone product ([3]; Example 5, 1% (v/v) concentrated aqueous HCl added to the recrystallization mixture): below 6.6 ppm
stability during recrystallization ([3]; in the presence of acid): enhanced stability
Structure (SMILES): Cc1ccc(C(=O)C(C)CN2CCCCC2)cc1 (centres unmarked) [tolperisone, 2-methyl-1-(4-methylphenyl)-3-(-piperidinyl)-1-propanone]

4-MMPPO concentration on storage of solution [2, 4]: constant 4-MMPPO concentration
4-MMPPO concentration on storage of solution [2, 5]: constant 4-MMPPO concentration
stability prior to sample preparation ([2]; −70° C. for 2 months): stable
Structure (SMILES): C=C(C)C(=O)c1ccc(C)cc1 [Sample 4-MMPPO, 2-methyl-1-(4-methylphenyl)-propenone]

[4-MMPPO in Drug Lot or API], ppm [1]: 39 ppm
Structure (SMILES): Cc1ccc(C(=O)C(C)CN2CCCCC2)cc1 (centres unmarked) [SB0068, tolperisone]
